The source of these data is patent publication US20250179103A1, “6-OXODECAHYDROPYRROLO[1,2-A][1,5]DIAZOCINE AND 6-OXODECAHYDRO-4H-PYRROLO[2,1-D][1,5]THIAZOCINE DERIVATIVES AS STAT3 AND STAT6 MODULATORS FOR THE TREATMENT OF CANCER AND INFLAMMATORY CONDITIONS” (Recludix Pharma, Inc., priority 2022, published 2025).

As usually defined, the IC50 is the concentration at which inhibition is half-maximal.

Assay [1] has as its target T1, Recombinant STAT3 protein (STAT3(G127-I722)) (Homo sapiens, UniProt P40763).
T1 construct: Recombinant STAT3 protein (STAT3(G127-I722))
The assay can be described thus: STAT3 Fluorescence Polarization (FP) Assay. In kind it is binding. Conditions: STAT3(G127-I722) 25 nM, probe 5-FAM-GpYLPQTV-NH2 2 nM, 45-minute incubation. A digest of the protocol:
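STAT3(G127-I722), 25 nM, was mixed with 2 nM 5-FAM-GpYLPQTV-NH2 probe in HEPES pH 7.4 buffer with 1% DMSO and serially diluted compound. FP (mP) was read after 45 min at room temperature. IC50 came from nonlinear regression.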
(In general: Polarisation of emitted light reports the rotation of a fluorescent probe.)

Assay [2] has as its target T2, Recombinant STAT6 protein (STAT6(W123-T658)) (Homo sapiens, UniProt P42226).
T2 construct: Recombinant STAT6 protein (STAT6(W123-T658))
T2 sequence (P42226 123-658): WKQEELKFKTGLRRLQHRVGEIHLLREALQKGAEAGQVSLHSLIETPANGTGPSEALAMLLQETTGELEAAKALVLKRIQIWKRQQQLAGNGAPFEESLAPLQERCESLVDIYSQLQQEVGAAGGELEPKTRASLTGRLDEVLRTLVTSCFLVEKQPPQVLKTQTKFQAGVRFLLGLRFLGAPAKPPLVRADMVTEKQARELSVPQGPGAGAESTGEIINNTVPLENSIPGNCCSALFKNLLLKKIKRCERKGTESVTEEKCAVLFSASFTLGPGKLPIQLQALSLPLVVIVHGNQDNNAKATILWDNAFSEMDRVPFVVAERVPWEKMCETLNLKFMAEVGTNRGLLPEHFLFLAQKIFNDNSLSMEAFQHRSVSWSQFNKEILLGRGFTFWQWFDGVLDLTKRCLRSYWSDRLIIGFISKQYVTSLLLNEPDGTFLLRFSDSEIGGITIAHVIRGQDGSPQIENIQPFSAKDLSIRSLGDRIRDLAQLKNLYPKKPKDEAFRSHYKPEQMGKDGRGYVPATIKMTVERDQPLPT
In words: STAT6 Fluorescence Polarization (FP) Assay. The assay is classed as binding. Conditions: STAT6(W123-T658) 250 nM, probe 5-FAM-ApYKPFQDLI-NH2 2 nM, 45-minute incubation. A digest of the protocol:
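Displacement of a fluorescent phosphotyrosine peptide (5-FAM-ApYKPFQDLI-NH2, 2 nM) from STAT6(W123-T658) (250 nM), 1% DMSO, pH 7.4 HEPES buffer. After 45 min at room temperature, polarization (mP) was plotted versus log compound concentration and fitted by nonlinear regression to give IC50.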

T1 sequence (P40763 127-722): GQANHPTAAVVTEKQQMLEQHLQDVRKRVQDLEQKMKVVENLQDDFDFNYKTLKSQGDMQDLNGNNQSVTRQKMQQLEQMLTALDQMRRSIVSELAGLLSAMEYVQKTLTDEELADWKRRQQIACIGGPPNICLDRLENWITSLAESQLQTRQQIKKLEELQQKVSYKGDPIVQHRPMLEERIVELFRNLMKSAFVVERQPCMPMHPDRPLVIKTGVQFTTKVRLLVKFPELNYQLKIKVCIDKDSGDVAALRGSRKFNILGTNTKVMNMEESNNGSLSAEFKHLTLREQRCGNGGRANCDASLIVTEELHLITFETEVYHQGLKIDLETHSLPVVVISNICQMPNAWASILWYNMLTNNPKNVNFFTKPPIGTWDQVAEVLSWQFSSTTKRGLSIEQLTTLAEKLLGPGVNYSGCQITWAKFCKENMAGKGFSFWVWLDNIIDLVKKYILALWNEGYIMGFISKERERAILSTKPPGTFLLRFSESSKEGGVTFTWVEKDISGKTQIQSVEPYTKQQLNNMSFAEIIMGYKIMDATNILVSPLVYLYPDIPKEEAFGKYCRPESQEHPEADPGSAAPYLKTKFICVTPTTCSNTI

`CC(=O)N1CC[C@H]2CC[C@@H](C(=O)N3C[C@H](C(N)=O)[C@@H](c4ccccc4)C3)N2C(=O)[C@@H](NC(=O)c2cc3cc(C(F)(F)P(=O)(O)O)ccc3s2)C1` (single isomer, unassigned) [Compound 59, ((2-(((5S,8S,10aR)-3-acetyl-8-((3R,4S or 3S,4R)-3-carbamoyl-4-phenylpyrrolidine-1-carbonyl)-6-oxodecahydropyrrolo[1,2-a][1,5]diazocin-5-yl)carbamoyl)benzo[b]thiophen-5-yl)difluoromethyl)phosphonic acid]: the IC50 in assay [1] was 1000 to 10000 nM; in assay [2], not above 300 nM.
`CC(=O)N1CC[C@H]2CC[C@@H](C(=O)N(C)c3ccccc3)N2C(=O)[C@@H](NC(=O)c2cc3cc(C(C)(C)P(=O)(O)O)ccc3s2)C1` [Compound 21, (2-(2-(((5S,8S,10aR)-3-acetyl-8-(methyl(phenyl)carbamoyl)-6-oxodecahydropyrrolo[1,2-a][1,5]diazocin-5-yl)carbamoyl)benzo[b]thiophen-5-yl)propan-2-yl)phospnoic aicd]: the values for the IC50 in assay [1] and in assay [2] were more than 10000 nM and more than 30000 nM, respectively.
With `COc1cc(C2CN(C(=O)[C@@H]3CC[C@@H]4CCN(C(C)=O)C[C@H](NC(=O)c5cc6cc(C(F)(F)P(=O)(O)O)ccc6s5)C(=O)N43)C[C@@H]2C#N)ccn1` (relative stereo) [Compound 148, ((2-(((5S,8S,10aR)-3-acetyl-8-((rel-trans)-3-cyano-4-(2-methoxypyridin-4-yl)pyrrolidine-1-carbonyl)-6-oxodecahydropyrrolo[1,2-a][1,5]diazocin-5-yl)carbamoyl)benzo[b]thiophen-5-yl)difluoromethyl)phosphonic acid], the half-inhibitory concentration (IC50) was in the range of 1000 to 10000 nM in assay [1] and 300 to 3000 nM in assay [2].
Taken in the same sequence, the figures for `CC(=O)N1CC[C@H]2CC[C@@H](C(=O)N3CC(c4cc[nH]c(=O)c4)[C@@H](C#N)C3)N2C(=O)[C@@H](NC(=O)c2cc3cc(C(F)(F)P(=O)(O)O)ccc3s2)C1` (relative stereo) [Compound 145, ((2-(((5S,8S,10aR)-3-acetyl-8-((rel-trans)-3-cyano-4-(2-oxo-1,2-dihydropyridin-4-yl)pyrrolidine-1-carbonyl)-6-oxodecahydropyrrolo[1,2-a][1,5]diazocin-5-yl)carbamoyl)benzo[b]thiophen-5-yl)difluoromethyl)phosphonic acid] were 100 to 1000 nM and not above 300 nM.
On the same counts, the results for `CNC(=O)[C@@H]1CC[C@@H]2CCN(Cc3ccn4ccnc4c3)C[C@H](NC(=O)c3cc4cc(C(F)(F)P(=O)(O)O)ccc4s3)C(=O)N21` [Compound 272, (difluoro(2-(((5S,8S,10aR)-3-(imidazo[1,2-a]pyridin-7-ylmethyl)-8-(methylcarbamoyl)-6-oxodecahydropyrrolo[1,2-a][1,5]diazocin-5-yl)carbamoyl)benzo[b]thiophen-5-yl)methyl)phosphonic acid] are not above 100 nM and 3000 to 30000 nM.
As to `CCCS(=O)(=O)N1CC[C@H]2CC[C@@H](C(=O)N3CCOCC3)N2C(=O)[C@@H](NC(=O)c2ccc3ccc(C(F)P(=O)(O)O)cc3c2)C1` (stereo partly drawn) [Compound 361, (fluoro(7-(((5S,8S,10aR)-8-(morpholine-4-carbonyl)-6-oxo-3-(propylsulfonyl)decahydropyrrolo[1,2-a] [1,5]diazocin-5-yl)carbamoyl)naphthalen-2-yl)methyl)phosphonic acid], the IC50 was more than 10000 nM in assay [1] and 3000 to 30000 nM in assay [2].
On the same counts, the results for `CC(=O)N1CC[C@H]2CC[C@@H](C(=O)N(C)c3cccc(C(F)F)c3)N2C(=O)[C@@H](NC(=O)c2cc3cc(C(F)(F)P(=O)(O)O)ccc3s2)C1` [Compound 201, ((2-(((5S,8S,10aR)-3-acetyl-8-((3-(difluoromethyl)phenyl)(methyl)carbamoyl)-6-oxodecahydropyrrolo[1,2-a][1,5]diazocin-5-yl)carbamoyl)benzo[b]thiophen-5-yl)difluoromethyl)phosphonic acid] are 1000 to 10000 nM and 300 to 3000 nM.
Regarding `N#C[C@H]1CN(C(=O)[C@@H]2CC[C@@H]3CN(C(=O)OCc4ccccc4)CC[C@H](NC(=O)c4ccc5ccc(C(F)(F)P(=O)(O)O)cc5c4)C(=O)N32)C[C@@H]1c1ccccc1` (relative stereo) [Compound 213, ((7-(((5S,8S,10aR)-2-((benzyloxy)carbonyl)-8-((rel-trans)-3-cyano-4-phenylpyrrolidine-1-carbonyl)-6-oxodecahydropyrrolo[1,2-a][1,4]diazocin-5-yl)carbamoyl)naphthalen-2-yl)difluoromethyl)phosphonic acid], the IC50 in assay [1] is 1000 to 10000 nM; in assay [2], not above 300 nM.
Turning to `CC(=O)N1CC[C@H]2CC[C@@H](C(=O)N3CC(C#N)C4(CCC4)C3)N2C(=O)[C@@H](NC(=O)c2cc3cc(C(F)(F)P(=O)(O)O)ccc3s2)C1` (stereo partly drawn) [Compound 64, ((2-(((5S,8S,10aR)-3-acetyl-8-(8-cyano-6-azaspiro[3.4]octane-6-carbonyl)-6-oxodecahydropyrrolo[1,2-a][1,5]diazocin-5-yl)carbamoyl)benzo[b]thiophen-5-yl)difluoromethyl)phosphonic acid], the IC50 in assay [1] lay within 1000 to 10000 nM; in assay [2], 300 to 3000 nM.
As for `CC(=O)N1CC[C@H]2CC[C@@H](C(=O)NC3COc4ccc(Cl)cc4C3)N2C(=O)[C@@H](NC(=O)c2cc3cc(C(F)(F)P(=O)(O)O)ccc3s2)C1` (stereo partly drawn) [Compound 127, ((2-(((5S,8S,10aR)-3-acetyl-8-((6-chlorochroman-3-yl)carbamoyl)-6-oxodecahydropyrrolo[1,2-a][1,5]diazocin-5-yl)carbamoyl)benzo[b]thiophen-5-yl)difluoromethyl)phosphonic acid], the IC50 is 100 to 1000 nM in assay [1] and 300 to 3000 nM in assay [2].
Taken in the same sequence, the figures for `CC(=O)N1CC[C@H]2CC[C@@H](C(=O)N(C)c3ccc(C(C)(C)C)cc3)N2C(=O)[C@@H](NC(=O)c2cc3cc(C(F)(F)P(=O)(O)O)ccc3s2)C1` [Compound 185, ((2-(((5S,8S,10aR)-3-acetyl-8-((4-(tert-butyl)phenyl)(methyl)carbamoyl)-6-oxodecahydropyrrolo[1,2-a][1,5]diazocin-5-yl)carbamoyl)benzo[b]thiophen-5-yl)difluoromethyl)phosphonic acid] were 1000 to 10000 nM and 300 to 3000 nM.
Taken in the same sequence, the figures for `CC(=O)N1CC[C@H]2CC[C@@H](C(=O)N3CC[C@H](C(=O)N4CCCCC4)C3)N2C(=O)[C@@H](NC(=O)c2cc3cc(C(F)(F)P(=O)(O)O)ccc3s2)C1` [Compound 193, ((2-(((5S,8S,10aR)-3-acetyl-6-oxo-8-((S)-3-(piperidine-1-carbonyl)pyrrolidine-1-carbonyl)decahydropyrrolo[1,2-a][1,5]diazocin-5-yl)carbamoyl)benzo[b]thiophen-5-yl)difluoromethyl)phosphonic acid] were 100 to 1000 nM and 300 to 3000 nM.
As for `CC(=O)N1CC[C@H]2CC[C@@H](C(=O)N3CC[C@H](C#N)[C@H]3c3ccccc3)N2C(=O)[C@@H](NC(=O)c2cc3cc(C(F)(F)P(=O)(O)O)ccc3s2)C1` (relative stereo) [Compound 207, ((2-(((5S,8S,10aR)-3-acetyl-8-((rel-trans)-3-cyano-2-phenylpyrrolidine-1-carbonyl)-6-oxodecahydropyrrolo[1,2-a][1,5]diazocin-5-yl)carbamoyl)benzo[b]thiophen-5-yl)difluoromethyl)phosphonic acid], the IC50 in assay [1] was 1000 to 10000 nM; in assay [2] it was 300 to 3000 nM.
For the compound `CC(=O)N1CC[C@H]2CC[C@@H](C(=O)Nc3ccc(OCCCN(C)C)cc3)N2C(=O)[C@@H](NC(=O)c2cc3cc(C(F)(F)P(=O)(O)O)ccc3s2)C1` [Compound 73, ((2-(((5S,8S,10aR)-3-acetyl-8-((4-(3-(dimethylamino)propoxy)phenyl)carbamoyl)-6-oxodecahydropyrrolo[1,2-a][1,5]diazocin-5-yl)carbamoyl)benzo[b]thiophen-5-yl)difluoromethyl)phosphonic acid], the IC50 in assay [1] was in the range of 1000 to 10000 nM; in assay [2] it was 3000 to 30000 nM.
Taken in the same sequence, the figures for `CCN1CC[C@H]2CC[C@@H](C(=O)N3C[C@@H](C#N)[C@H](c4ccccc4)C3)N2C(=O)[C@@H](NC(=O)c2cc3cc([C@H](F)P(=O)(O)O)ccc3s2)C1` (single isomer, unassigned) [Compound 232, ((R or S)-(2-(((5S,8S,10aR)-8-((3S,4R or 3R,4R)-3-cyano-4-phenylpyrrolidine-1-carbonyl)-3-ethyl-6-oxodecahydropyrrolo[1,2-a][1,5]diazocin-5-yl)carbamoyl)benzo[b]thiophen-5-yl)fluoromethyl)phosphonic acid] were 100 to 1000 nM and not above 300 nM.
